For the test, the target named is Acetylcholinesterase (AChE) (Electrophorus electricus, UniProt O42275). As to the kind of experiment: Ellman colorimetric enzyme inhibition assay (commercial enzyme). The format is biochemical.

SMILES strings stand for the structures.

Chain of Acetylcholinesterase (AChE) (O42275 24-633): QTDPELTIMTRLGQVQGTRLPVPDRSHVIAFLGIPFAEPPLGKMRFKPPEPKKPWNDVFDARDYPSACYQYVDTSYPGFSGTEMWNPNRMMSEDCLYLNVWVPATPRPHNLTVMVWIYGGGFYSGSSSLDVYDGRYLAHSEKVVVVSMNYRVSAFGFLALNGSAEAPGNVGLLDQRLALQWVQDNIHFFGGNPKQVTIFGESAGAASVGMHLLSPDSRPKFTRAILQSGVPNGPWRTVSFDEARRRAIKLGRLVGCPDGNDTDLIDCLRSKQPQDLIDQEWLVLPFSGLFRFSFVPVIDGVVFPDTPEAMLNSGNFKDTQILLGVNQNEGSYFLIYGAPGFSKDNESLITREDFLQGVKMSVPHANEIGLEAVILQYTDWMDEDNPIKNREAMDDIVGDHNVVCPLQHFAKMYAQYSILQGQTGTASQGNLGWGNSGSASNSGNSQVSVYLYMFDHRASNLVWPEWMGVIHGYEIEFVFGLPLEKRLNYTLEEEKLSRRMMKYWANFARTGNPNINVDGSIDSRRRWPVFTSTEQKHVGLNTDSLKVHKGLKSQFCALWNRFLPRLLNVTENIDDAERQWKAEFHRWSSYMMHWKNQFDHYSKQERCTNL

As for `O=C1CCCC1C(O)c1cccc([N+](=O)[O-])c1` (stereo not shown) [3NCP, 2-(hydroxy-(3-nitrophenyl)methyl)cyclopentanone], the midpoint of inhibition, the IC50, lay at 68.7 µM.

The values are drawn from PMC7603158, “Attenuation of Spatial Memory in 5xFAD Mice by Halting Cholinesterases, Oxidative Stress and Neuroinflammation Using a Cyclopentanone Derivative” (Pharmaceuticals, 2020).
